Test: Caco-2 cell permeability
Settings: human, Caco-2
Method: The Pc of some model compounds, for which the bioavailability in humans is known, was also determined in the same experiment.

Row | SMILES | Papp [×10⁻⁶ cm/s]
1 | CC(=O)Nc1ccc(O)cc1 [acetaminophen, reference compound] | > 20
2 | O=C(O)c1ccccc1O [salicylic acid, reference compound] | > 20
3 | CC(C)Cc1ccc(C(C)C(=O)O)cc1 (stereo not drawn) [ibuprofen, reference compound] | > 20

Reference: USRE40387E1, “Pharmaceutical compositions, dosage forms and methods for oral administration of epothilones” (Bristol-Myers Squibb Company, priority 2001, dated 2008)
